The assay relates to HeLa S3 cells. The experiment in a line: Growth inhibitory effect on HeLa cells. The assay is classed as cell-based. Conditions: 96 h; for Cell count, average ± standard deviation: three runs, control 732 ± 24. On the procedure: Growth inhibitory effect on HeLa cells
Cultured HeLa S3 cells are suspended in an MEM medium (containing 10% bovine fetus serum and 6 mg/100 ml kanamycin) at a concentration of 5×10^4 cells/ml, 1 ml each of the cell suspension is pipetted in 24-hole multi-dishes, and the cells are cultured in a carbon dioxide cultivator with 5% CO2 at 37° C. for 24 hours. Then, 0.1 ml each of drug solutions prepared at predetermined concentrations are added to each dish. Then, the cells are further cultured in the carbon dioxide cultivator for 96 hours. After the culturing, the culture liquor is removed from the dishes, and then 1 ml of PBS [physiological saline solution containing a phosphate buffer (pH 7.2)]is added to the dishes to gently wash the cell surfaces. Then, PBS is removed from the dishes. Then, 1 ml of PBS containing 0.05% trypsin and 0.02% EDTA is added to each dish. The dishes are left standing at room temperature for about 15 minutes. Adhered cells are peeled off, and 0.5 ml of the cell suspension is added to 10 ml of an isotonic solution. Cells are counted by a microcell counter to determine inhibition percent (%) against cell propagation of groups treated with the drug on the basis of the cell count of the control group. Linear expression showing a relationship between the concentration and the inhibition percent are obtained from the inhibition percent of the drug against the cell propagation at the respective concentration according to the least-squares method, and then the drug concentrations IC50 showing a 50% inhibition against the cell propagation are obtained from the linear expression.

The structures appear in SMILES notation. Values after ≈ are worked out from the molar mass of the structure shown.

The term inhibition denotes the change of the read-out against control, counted positive when it falls. The IC50 is the concentration needed to halve the response being measured. Low values mean higher potency, high ones lower potency.

As to `O=C1C=CC2COC(O)CC12` (stereo not drawn) [compound (I), 4-hydroxy-3-oxabicyclo [4.3.0]nona-8-en-7-on], the “Cell count, average ± standard deviation” value (1 μg/ml) is given as 697 ± 58 × 10^3 cells/ml; the “Cell count, average ± standard deviation” value (3 μg/ml) is given as 784 ± 42 × 10^3 cells/ml; the “Cell count, average ± standard deviation” value (5 μg/ml) was 454 ± 21 × 10^3 cells/ml; the “Cell count, average ± standard deviation” value (10 μg/ml) is 7.1 ± 2.1 × 10^3 cells/ml. Besides, for the setting “Homo sapiens, HeLa S3, 1 μg/ml, read-out: Inhibition percent against cell propagation”, the inhibition at 1 µg/mL was found to be 4.8%. Besides, the inhibition at 3 µg/mL (Homo sapiens, HeLa S3, 3 μg/ml, read-out: Inhibition percent against cell propagation) is -7%. Also, the inhibition at 5 µg/mL (Homo sapiens, HeLa S3, 5 μg/ml, read-out: Inhibition percent against cell propagation) was 38%. In addition, the inhibition at 10 µg/mL (Homo sapiens, HeLa S3, 10 μg/ml, read-out: Inhibition percent against cell propagation) is 99%. The IC50 (Homo sapiens, HeLa S3, 50% inhibition against cell propagation, linear least-squares) is 5.73 µg/mL (≈ 37.2 µM).

The values are drawn from patent US4618687A, “Cyclopentenone compound and process for production thereof” (Kyowa Hakko Kogyo Co., Ltd., priority 1984, dated 1986).
